Assay results: ChEMBL document CHEMBL3638512, “Piperazine compounds” (2013)
pKi: −log10 of the molar value.

Biological target: T1, Cathepsin K (Homo sapiens, UniProt P43235)
T1 sequence (P43235 whole entry): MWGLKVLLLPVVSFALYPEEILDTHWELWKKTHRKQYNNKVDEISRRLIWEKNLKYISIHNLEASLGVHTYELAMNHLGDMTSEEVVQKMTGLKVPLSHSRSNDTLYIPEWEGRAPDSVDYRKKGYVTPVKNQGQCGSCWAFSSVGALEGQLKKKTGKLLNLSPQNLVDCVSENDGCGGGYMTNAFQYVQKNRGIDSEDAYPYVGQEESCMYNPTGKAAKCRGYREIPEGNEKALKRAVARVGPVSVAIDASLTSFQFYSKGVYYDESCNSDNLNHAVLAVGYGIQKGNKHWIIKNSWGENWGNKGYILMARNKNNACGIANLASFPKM
Test: In Vitro Inhibition Assay: In vitro cathepsin inhibition assay.

- pKi: 8.96
Compound: C[C@H]1CN(C(=O)[C@@H](NC(=O)c2ccc(N3CCN(C)CC3)cc2)C(C)(C)C)[C@@H]2C(=O)CO[C@@H]21
